Measured values published in ChEMBL document CHEMBL4706551, “Rational design of new multitarget histamine H receptor ligands as potential candidates for treatment of Alzheimer's disease” (Eur J Med Chem, 2020).
Active and inactive are the calls of the source. The calls are words filed in the database; no cut-off is given here.

Tests used:
Cholinesterase [1] = molecular target: Cholinesterase (Equus caballus, UniProt P81908)
Description: Inhibition of equine serum BChE using BTCI as substrate incubated for 5 mins followed by substrate addition and measured after 5 mins by spectrophotometric based Ellman's method

MAO-A [2] = molecular target: T1, MAO-A (Homo sapiens, UniProt P21397); test: Inhibition of recombinant human MAO-A expressed in baculovirus infected BTI cells at 10 uM using p-tyramine as substrate by fluorometric assay relative to control; details: probe p-tyramine
T1 sequence (P21397 whole entry): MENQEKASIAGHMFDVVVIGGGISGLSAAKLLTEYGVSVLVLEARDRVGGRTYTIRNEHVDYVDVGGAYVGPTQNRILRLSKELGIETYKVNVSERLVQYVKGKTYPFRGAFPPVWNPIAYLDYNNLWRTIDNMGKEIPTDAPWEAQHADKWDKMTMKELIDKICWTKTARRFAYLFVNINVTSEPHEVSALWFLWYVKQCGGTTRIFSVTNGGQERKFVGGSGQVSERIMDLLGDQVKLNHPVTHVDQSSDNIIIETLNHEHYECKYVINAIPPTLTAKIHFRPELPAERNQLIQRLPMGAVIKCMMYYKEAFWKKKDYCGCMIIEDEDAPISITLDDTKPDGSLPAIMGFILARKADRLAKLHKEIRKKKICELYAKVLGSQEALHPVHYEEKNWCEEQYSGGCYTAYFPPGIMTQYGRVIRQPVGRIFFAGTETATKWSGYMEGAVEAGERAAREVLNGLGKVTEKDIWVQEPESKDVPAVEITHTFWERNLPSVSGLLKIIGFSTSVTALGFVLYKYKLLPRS

[3] = molecular target: T2, Amine oxidase [flavin-containing] B (Homo sapiens, UniProt P27338); test: biochemical; format: cell-based, BTI
T2 sequence (P27338 whole entry): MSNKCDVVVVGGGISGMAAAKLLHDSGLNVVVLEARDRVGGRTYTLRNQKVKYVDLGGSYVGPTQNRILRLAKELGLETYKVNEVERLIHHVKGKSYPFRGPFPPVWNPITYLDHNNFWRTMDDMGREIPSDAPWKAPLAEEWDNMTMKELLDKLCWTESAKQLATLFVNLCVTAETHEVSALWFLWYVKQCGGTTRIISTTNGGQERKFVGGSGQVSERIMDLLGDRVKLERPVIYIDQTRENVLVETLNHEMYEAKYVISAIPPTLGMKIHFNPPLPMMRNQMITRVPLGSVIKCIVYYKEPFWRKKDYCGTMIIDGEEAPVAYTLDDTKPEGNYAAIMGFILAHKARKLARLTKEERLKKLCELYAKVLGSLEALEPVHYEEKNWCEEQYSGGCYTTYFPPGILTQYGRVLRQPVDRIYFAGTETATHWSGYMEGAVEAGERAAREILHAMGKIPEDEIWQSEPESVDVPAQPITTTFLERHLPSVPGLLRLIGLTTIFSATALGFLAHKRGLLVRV
Description: Inhibition of recombinant human MAO-B expressed in baculovirus infected BTI cells using p-tyramine as substrate by fluorometric assay

Histamine H3 receptor = Histamine H3 receptor (Homo sapiens, UniProt Q9Y5N1); test: biochemical
Chain of Histamine H3 receptor (Q9Y5N1 whole entry): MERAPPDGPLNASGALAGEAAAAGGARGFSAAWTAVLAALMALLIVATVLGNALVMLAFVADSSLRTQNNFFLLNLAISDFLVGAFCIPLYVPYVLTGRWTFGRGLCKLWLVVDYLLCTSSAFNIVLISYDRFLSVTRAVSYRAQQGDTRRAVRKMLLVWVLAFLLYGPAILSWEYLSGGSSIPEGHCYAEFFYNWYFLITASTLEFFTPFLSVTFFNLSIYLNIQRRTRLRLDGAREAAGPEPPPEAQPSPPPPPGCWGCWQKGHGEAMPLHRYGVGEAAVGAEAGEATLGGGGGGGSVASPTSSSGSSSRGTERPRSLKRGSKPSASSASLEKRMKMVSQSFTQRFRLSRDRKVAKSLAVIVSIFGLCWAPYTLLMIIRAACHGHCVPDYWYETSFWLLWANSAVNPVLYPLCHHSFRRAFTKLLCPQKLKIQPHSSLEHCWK
Description: Displacement of [3H]N-alpha-methylhistamine from recombinant human histamine H3 receptor expressed in CHO-K1 cells by microbeta scintillation analysis

Acetylcholinesterase [4] = molecular target: T3, Acetylcholinesterase (Electrophorus electricus, UniProt O42275)
T3 sequence (O42275 whole entry): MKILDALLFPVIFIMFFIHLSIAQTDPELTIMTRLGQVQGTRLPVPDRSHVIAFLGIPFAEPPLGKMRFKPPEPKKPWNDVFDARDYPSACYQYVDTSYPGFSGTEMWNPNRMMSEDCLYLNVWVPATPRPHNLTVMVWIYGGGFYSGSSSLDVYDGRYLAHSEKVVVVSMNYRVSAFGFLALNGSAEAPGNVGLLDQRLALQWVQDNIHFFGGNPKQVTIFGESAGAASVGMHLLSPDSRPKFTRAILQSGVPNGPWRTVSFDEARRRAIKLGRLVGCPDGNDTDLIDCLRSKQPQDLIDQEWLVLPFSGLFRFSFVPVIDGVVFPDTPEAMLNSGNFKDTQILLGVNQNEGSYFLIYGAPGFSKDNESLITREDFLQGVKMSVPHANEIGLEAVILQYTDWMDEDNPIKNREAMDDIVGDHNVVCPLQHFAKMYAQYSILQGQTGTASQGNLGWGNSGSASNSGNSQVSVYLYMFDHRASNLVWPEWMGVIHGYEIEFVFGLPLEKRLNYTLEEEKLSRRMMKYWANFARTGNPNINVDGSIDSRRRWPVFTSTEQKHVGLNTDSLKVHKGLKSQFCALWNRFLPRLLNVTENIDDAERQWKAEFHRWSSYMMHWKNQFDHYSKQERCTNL
Description: Inhibition of Electric eel AChE using ATCI as substrate incubated for 5 mins followed by substrate addition and measured after 5 mins by spectrophotometric based Ellman's method

MAO-A [5] = molecular target: T1, MAO-A; test: in vitro; details: probe p-tyramine
Description: Inhibition of recombinant human MAO-A expressed in baculovirus infected BTI cells at 1 uM using p-tyramine as substrate by fluorometric assay relative to control

Acetylcholinesterase [6] = molecular target: T3, Acetylcholinesterase; test: Inhibition of Electric eel AChE using ATCI as substrate preincubated with enzyme for 60 mins followed by substrate addition and measured for 120 secs by spectrophotometric based Ellman's method
Mus musculus [7] = test: (§1) Analgesic activity in formalin-induced nociception CD-1 mouse model assessed as reduction in pain behaviour by measuring less licking of formalin injected hind paw compound administered intraperitoneally prior to formalin induction and measured during late phase (15 to 30 mins after formalin injection) by formalin test; format: functional; details: CD-1, ip, time 15-30 min
Mus musculus [8] = test: as §1, with “early” for “late”, “(0” for “(15”, “5” for “30”; format: functional; details: CD-1, ip, time 0-5 min
[9] = molecular target: Cholinesterase (Equus caballus) (UniProt P81908); test: Non-competitive inhibition of equine serum BChE using BTCI as substrate incubated for 5 mins followed by substrate addition and measured after 5 mins by spectrophotometric based Cornish-Bowden plot analysis; format: cell-free; details: time 10.0 min
Chain of Cholinesterase (Equus caballus) (P81908 whole entry): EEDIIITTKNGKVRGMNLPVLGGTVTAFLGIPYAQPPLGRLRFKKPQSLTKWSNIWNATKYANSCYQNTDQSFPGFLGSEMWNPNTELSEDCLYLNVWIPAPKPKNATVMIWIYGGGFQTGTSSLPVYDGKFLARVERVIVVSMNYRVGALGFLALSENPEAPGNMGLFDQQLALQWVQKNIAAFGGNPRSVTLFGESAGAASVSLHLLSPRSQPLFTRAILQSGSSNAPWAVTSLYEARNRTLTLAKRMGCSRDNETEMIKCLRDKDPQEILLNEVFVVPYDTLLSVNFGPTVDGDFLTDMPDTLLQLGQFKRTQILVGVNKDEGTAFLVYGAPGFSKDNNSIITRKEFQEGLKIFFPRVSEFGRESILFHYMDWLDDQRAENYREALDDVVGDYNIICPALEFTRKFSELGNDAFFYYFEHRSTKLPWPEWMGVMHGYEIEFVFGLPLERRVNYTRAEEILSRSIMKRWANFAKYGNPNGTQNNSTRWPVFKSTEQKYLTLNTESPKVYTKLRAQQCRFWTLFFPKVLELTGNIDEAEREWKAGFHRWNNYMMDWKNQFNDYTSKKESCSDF

Rattus norvegicus [10] = test: Memory enhancement effect in dizocilpine-induced Wistar (Krf:WI) rat model of amnesia assessed as increase in step through latency at 1.25 to 5 mg/kg, ip measured after 30 to 45 mins by step-through passive avoidance test; format: functional, organism-based; details: dose 1.25-5 mg/kg, time 30-45 min
in vitro = details: PAMPA, pH 7.4
Description: Permeability of compound in PBS buffer assessed as permeability coefficient at pH 7.4 at 200 uM incubated for 5 hrs by PAMPA based LC-MS analysis

[11] = molecular target: Acetylcholinesterase (Electrophorus electricus) (UniProt O42275); test: Non-competitive inhibition of Electric eel AChE using ATCI as substrate incubated for 5 mins followed by substrate addition and measured after 5 mins by spectrophotometric based Cornish-Bowden plot analysis; details: time 10.0 min
Chain of Acetylcholinesterase (Electrophorus electricus) (O42275 24-633 limits assumed): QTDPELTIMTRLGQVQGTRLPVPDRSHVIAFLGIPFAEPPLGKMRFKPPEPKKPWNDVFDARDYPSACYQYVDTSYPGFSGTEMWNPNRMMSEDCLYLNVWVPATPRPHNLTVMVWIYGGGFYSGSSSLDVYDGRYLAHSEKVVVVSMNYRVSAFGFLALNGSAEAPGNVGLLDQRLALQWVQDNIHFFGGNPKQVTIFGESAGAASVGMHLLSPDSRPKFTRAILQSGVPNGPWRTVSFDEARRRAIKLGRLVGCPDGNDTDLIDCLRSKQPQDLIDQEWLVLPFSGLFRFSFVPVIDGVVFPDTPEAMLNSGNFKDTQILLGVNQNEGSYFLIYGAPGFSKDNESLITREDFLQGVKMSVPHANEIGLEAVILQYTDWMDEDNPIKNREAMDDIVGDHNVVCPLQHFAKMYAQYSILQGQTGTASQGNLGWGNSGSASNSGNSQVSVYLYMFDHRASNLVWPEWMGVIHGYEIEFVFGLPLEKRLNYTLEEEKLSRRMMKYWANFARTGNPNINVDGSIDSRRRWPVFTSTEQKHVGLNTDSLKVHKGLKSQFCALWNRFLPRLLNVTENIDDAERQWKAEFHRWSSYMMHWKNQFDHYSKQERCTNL

Rattus norvegicus [12] = test: Memory enhancement effect in dizocilpine-induced Wistar (Krf:WI) rat model of amnesia assessed as decrease in transfer latency time at 1.25 to 5 mg/kg, ip measured after 30 to 45 mins by elevated plus maze test; format: functional, organism-based; details: dose 1.25-5 mg/kg, time 30-45 min
[13] = molecular target: Acetylcholinesterase (Electrophorus electricus) (UniProt O42275); test: Non-competitive inhibition of Electric eel AChE using ATCI as substrate incubated for 5 mins followed by substrate addition and measured after 5 mins by spectrophotometric based Lineweaver-Burk plot analysis; details: time 10.0 min
Cholinesterase [14] = molecular target: Cholinesterase (Homo sapiens, UniProt P06276)
Chain of Cholinesterase (Homo sapiens, UniProt P06276) (P06276 whole entry): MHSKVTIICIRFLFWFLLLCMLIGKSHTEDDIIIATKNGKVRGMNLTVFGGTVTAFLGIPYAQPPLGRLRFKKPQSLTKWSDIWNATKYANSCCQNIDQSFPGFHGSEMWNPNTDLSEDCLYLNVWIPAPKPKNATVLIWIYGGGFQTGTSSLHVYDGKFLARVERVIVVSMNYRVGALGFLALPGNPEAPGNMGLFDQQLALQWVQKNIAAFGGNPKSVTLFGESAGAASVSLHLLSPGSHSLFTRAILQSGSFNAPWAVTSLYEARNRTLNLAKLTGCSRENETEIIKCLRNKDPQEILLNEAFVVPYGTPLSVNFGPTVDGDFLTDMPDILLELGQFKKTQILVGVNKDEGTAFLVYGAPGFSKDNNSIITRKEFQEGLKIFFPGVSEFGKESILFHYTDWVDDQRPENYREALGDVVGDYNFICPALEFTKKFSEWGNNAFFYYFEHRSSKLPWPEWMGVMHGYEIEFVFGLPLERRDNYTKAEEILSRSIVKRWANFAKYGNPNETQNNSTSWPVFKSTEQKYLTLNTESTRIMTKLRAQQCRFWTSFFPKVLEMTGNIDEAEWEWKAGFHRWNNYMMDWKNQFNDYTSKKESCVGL
Description: Inhibition of human BuChE by spectrophotometric based Ellman's method

[15] = molecular target: Cholinesterase (Equus caballus) (UniProt P81908); test: Non-competitive inhibition of equine serum BChE using BTCI as substrate incubated for 5 mins followed by substrate addition and measured after 5 mins by spectrophotometric based Lineweaver-Burk plot analysis; format: cell-free; details: time 10.0 min
Acetylcholinesterase [16] = molecular target: Acetylcholinesterase (Homo sapiens, UniProt P22303); test: Inhibition of recombinant human AChE using ATCI as substrate incubated for 5 mins followed by substrate addition and measured after 5 mins by spectrophotometric based Ellman's method
Chain of Acetylcholinesterase (Homo sapiens, UniProt P22303) (P22303 whole entry): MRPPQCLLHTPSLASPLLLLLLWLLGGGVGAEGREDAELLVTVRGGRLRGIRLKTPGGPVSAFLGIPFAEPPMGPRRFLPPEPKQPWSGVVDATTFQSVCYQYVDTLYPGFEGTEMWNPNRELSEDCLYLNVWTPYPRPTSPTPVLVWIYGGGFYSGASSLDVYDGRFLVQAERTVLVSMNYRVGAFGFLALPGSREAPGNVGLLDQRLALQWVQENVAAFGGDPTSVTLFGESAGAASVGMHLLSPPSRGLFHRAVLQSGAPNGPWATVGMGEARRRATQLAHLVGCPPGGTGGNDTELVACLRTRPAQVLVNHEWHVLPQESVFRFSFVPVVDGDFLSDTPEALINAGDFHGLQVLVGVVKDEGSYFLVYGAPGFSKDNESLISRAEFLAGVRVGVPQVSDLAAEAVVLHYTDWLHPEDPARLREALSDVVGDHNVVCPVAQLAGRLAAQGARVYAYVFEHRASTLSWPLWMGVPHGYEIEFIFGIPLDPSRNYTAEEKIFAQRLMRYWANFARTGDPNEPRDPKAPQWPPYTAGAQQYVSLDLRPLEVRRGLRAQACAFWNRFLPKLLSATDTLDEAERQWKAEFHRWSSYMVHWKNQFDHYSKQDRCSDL

Chain of Cholinesterase (Equus caballus, UniProt P81908) (P81908 whole entry): as the sequence (P81908 whole entry) above

Row | SMILES | IC50 (Cholinesterase [1]) | inhibition at 10 µM (MAO-A [2]) | IC50 [3] | Ki (Histamine H3 receptor) | IC50 (Acetylcholinesterase [4]) | inhibition at 1 µM (MAO-A [5]) | also measured
1 | CC1CCCN(CCCCCCOc2ccc3oc4ccc(Cl)cc4c(=O)c3c2)C1 (stereo unspecified) | 1470 nM | < 50% | 717 nM | 436 nM | 307 nM | 28% | 
2 | O=c1c2ccc(Cl)cc2oc2ccc(OCCCCCCN3CCCCC3)cc12 | 1980 nM | < 50% | 946 nM | 203 nM | 378 nM | 8% | 
3 | O=c1c2ccc(Cl)cc2oc2ccc(OCCCCCN3CCCCCC3)cc12 | 1280 nM | < 50% | 2110 nM | 86 nM | 314 nM | 2% | 
4 | CC1CCN(CCCCCOc2ccc3oc4cc(Cl)ccc4c(=O)c3c2)CC1 | 1610 nM | < 50% | 1540 nM | 448 nM | 421 nM | 22% | 
5 | O=c1c2cc(Cl)ccc2oc2ccc(OCCCCCCN3CCCCCC3)cc12 | 545 nM | < 50% | 1390 nM | 238 nM | 270 nM | 23% | 
6 | O=c1c2ccccc2oc2cc(OCCCCCN3CCCCC3)cc(O)c12 |  |  |  |  |  |  | IC50 (Acetylcholinesterase [6]): 460 nM
7 | CC1CCN(CCCCCCOc2ccc3oc4cc(Cl)ccc4c(=O)c3c2)CC1 | 1510 nM | < 50% | 1640 nM | 520 nM | 561 nM | 37% | 
8 | CC1CCN(CCCCCCOc2ccc3oc4ccc(Cl)cc4c(=O)c3c2)CC1 | 899 nM | < 50% | 720 nM | 465 nM | 525 nM | 28% | 
9 | CC1CCCN(CCCCCCOc2ccc3oc4ccccc4c(=O)c3c2)C1 (stereo unspecified) | 1150 nM | < 50% | 1550 nM | 100 nM | 387 nM | 4% | 
10 | O=c1c2ccccc2oc2ccc(OCCCCCCN3CCCCC3)cc12 | 2000 nM | < 50% | 939 nM | 1060 nM | 358 nM | 4% | 
11 | O=c1c2ccccc2oc2ccc(OCCCCCCN3CCCCCC3)cc12 | 605 nM | < 50% | 385 nM | 496 nM | 308 nM | 3% | 
12 | CC1CCCN(CCCCCOc2ccc3oc4cc(Cl)ccc4c(=O)c3c2)C1 (stereo unspecified) | 2830 nM | < 50% | 1980 nM | 56 nM | 353 nM | 11% | 
13 | O=c1c2ccccc2oc2ccc(OCCCCCN3CCCCC3)cc12 | 2540 nM | < 50% | 1500 nM | 172 nM | 622 nM | 6% | 
14 | Clc1ccc(CCCOCCCN2CCCCC2)cc1 [PITOLISANT] |  |  |  |  |  | 9% | 
15 | CC1CCCN(CCCCCOc2ccc3oc4ccc(Cl)cc4c(=O)c3c2)C1 (stereo unspecified) | 685 nM | < 50% | 665 nM | 148 nM | 691 nM | 2% | 
16 | O=c1c2cc(Cl)ccc2oc2ccc(OCCCCCN3CCCCC3)cc12 | 983 nM | < 50% | 756 nM | 150 nM | 238 nM | 5% | 
17 | O=c1c2cc(Cl)ccc2oc2ccc(OCCCCCCN3CCCCC3)cc12 | 954 nM | < 50% | 1820 nM | 282 nM | 620 nM | 8% | 
18 | O=c1c2cc(Cl)ccc2oc2ccc(OCCCCCN3CCCCCC3)cc12 | 394 nM | < 50% | 897 nM | 100 nM | 136 nM | 12% | ED50 (Mus musculus [7]): 22.5 mg/kg; ED50 (Mus musculus [8]): 27.3 mg/kg; inhibition [9]: Active; Activity (Rattus norvegicus [10]): inactive; Papp at 5 h, 200 µM (in vitro): 2.2 ×10⁻⁶ cm/s; inhibition [11]: Active; Activity (Rattus norvegicus [12]): inactive; inhibition [13]: Active; IC50 (Cholinesterase [14]): 1590 nM; inhibition [15]: Active; IC50 (Acetylcholinesterase [16]): 120 nM
19 | C#CCN(C)CCCOc1ccc(Cl)cc1Cl [CLORGILINE] |  |  |  |  |  | 1.8% | 
20 | O=c1c2ccc(Cl)cc2oc2ccc(OCCCCCCN3CCCCCC3)cc12 | 1240 nM | < 50% | 975 nM | 602 nM | 235 nM | 5% | 
21 | CC1CCN(CCCCCOc2ccc3oc4ccc(Cl)cc4c(=O)c3c2)CC1 | 1100 nM | < 50% | 673 nM | 140 nM | 386 nM | 5% | 
22 | CC1CCCN(CCCCCCOc2ccc3oc4cc(Cl)ccc4c(=O)c3c2)C1 (stereo unspecified) | 2040 nM | < 50% | 1830 nM | 1100 nM | 384 nM | 42% | 
23 | CC1CCN(CCCCCCOc2ccc3oc4ccccc4c(=O)c3c2)CC1 | 965 nM | < 50% | 856 nM | 97 nM | 406 nM | 6% | 
24 | CC1CCCN(CCCCCOc2ccc3oc4ccccc4c(=O)c3c2)C1 (stereo unspecified) | 978 nM | < 50% | 4200 nM | 156 nM | 342 nM | 1% | 
25 | CC1CCN(CCCCCOc2ccc3oc4ccccc4c(=O)c3c2)CC1 | 1090 nM | < 50% | 1860 nM | 110 nM | 697 nM | 1% | 
